Active and inactive are the calls of the source. The calls are words filed in the database; no cut-off is given here.

Test [1] relates to HeLa. Nature of the test: Induction of LC3 autophagy in human HeLa cells stably expressing GFP-LC3 assessed as increase of the LC3-II level at 10 uM after 6 hrs by immunoblotting. It counts as functional, cell-based. (A western blot detects proteins with antibodies after separation by electrophoresis.)
A further test deals with U2OS. Nature of the test: Induction of LC3 autophagy in human U2OS cells stably expressing GFP-LC3 assessed as increasing number of punctuate GFP-LC3 dots at 10 uM after 6 hrs by confocal microscopy. In kind it is functional, cell-based.
The next test deals with SH-SY5Y. Nature of the test: Induction of LC3 autophagy in human SH-SY5Y cells stably expressing GFP-LC3 assessed as increasing number of punctuate GFP-LC3 dots at 10 uM after 6 hrs by confocal microscopy. In kind it is functional, cell-based.
Test [2] concerns HeLa. Nature of the test: Induction of LC3 autophagy in human HeLa cells stably expressing GFP-LC3 assessed as increasing number of punctuate GFP-LC3 dots after 6 to 24 hrs by confocal microscopy. It counts as functional, cell-based.
The test system of test [3] is HeLa. Briefly: Induction of LC3 autophagy in human HeLa cells stably expressing GFP-LC3 assessed as increasing number of punctuate GFP-LC3 dots at 5 to 10 uM by confocal microscopy. It counts as functional, cell-based. The note with it: TDE = time-dependent effect.
In test [4] the test system is HeLa. Briefly: Induction of LC3 autophagy in human HeLa cells stably expressing GFP-LC3 assessed as increase of the LC3-II level after 12 to 24 hrs by Western blotting analysis. In kind it is functional, cell-based.
Test [5] has as its system HeLa. Briefly: Induction of LC3 autophagy in human HeLa cells stably expressing GFP-LC3 assessed as increase of the LC3-II level at 1 to 20 uM by Western blotting analysis. In kind it is functional, cell-based. The settings on record: TDE = time-dependent effect.
In test [6] the test system is HeLa. Nature of the test: Induction of LC3 autophagy in human HeLa cells stably expressing GFP-LC3 assessed as increasing number of punctuate GFP-LC3 dots at 10 uM after 6 hrs by confocal microscopy in presence of bafilomycin A1. In kind it is functional, cell-based.
For test [7], the system named is HeLa. Briefly: Induction of LC3 autophagy in human HeLa cells stably expressing GFP-LC3 assessed as increase of the LC3-II level at 10 uM after 6 hrs by Western blotting analysis in presence of bafilomycin A1. It counts as functional, cell-based.
The test system of test [8] is HeLa. Briefly: Induction of LC3 autophagy in ATG5 KO human HeLa cells stably expressing GFP-LC3 assessed as increase of the LC3-II level at 10 uM after 6 hrs by Western blotting analysis. It counts as functional, cell-based.
In test [9] the test system is HeLa. Nature of the test: Induction of LC3 autophagy in ATG5 KO human HeLa cells stably expressing GFP-LC3 assessed as increasing number of punctuate GFP-LC3 dots at 10 uM after 6 hrs by confocal microscopy. It counts as functional, cell-based.
Test [10] has as its system HeLa. Briefly: Induction of LC3 autophagy in Beclin1 KO human HeLa cells stably expressing GFP-LC3 and transfected of Beclin2 siRNA assessed as increase of the LC3-II level at 10 uM after 6 hrs by Western blotting analysis. It counts as functional, cell-based.
The subject of test [11] is HeLa. Nature of the test: Induction of LC3 autophagy in Beclin1 KO human HeLa cells stably expressing GFP-LC3 assessed as increase of the LC3-II level at 10 uM after 6 hrs by Western blotting analysis. It counts as functional, cell-based.
Test [12] relates to HeLa. Briefly: Induction of mitochondrial dysfunction in human HeLa cells at 10 uM after 6 hrs using anti-Tim23 antibody by confocal microscopy. It counts as functional, cell-based.
The subject of test [13] is HeLa. Briefly: Induction of mitochondrial dysfunction in human HeLa cells at 10 uM after 6 to 24 hrs using anti-Tom20 and anti-Tim23 antibodies by Western blotting. In kind it is functional, cell-based.
Test [14] concerns HeLa. Briefly: Induction of mitochondrial dysfunction in human HeLa cells assessed as reduction in mitochondrial mass at 10 uM after 6 to 24 hrs using anti-Tom20 and anti-Tim23 antibodies by Western blotting. It counts as functional, cell-based.
Test [15] concerns HeLa. Briefly: Induction of mitochondrial dysfunction in human HeLa cells stably expressing GFP-LC3 at 10 uM after 6 to 24 hrs using anti-Tim23 antibodies by Western blotting. It counts as functional, cell-based.
In test [16] the test system is HeLa. Nature of the test: Induction of mitochondrial dysfunction in human HeLa cells stably expressing GFP-LC3 assessed as loss of mitochondrial membrane potential at 10 uM after 6 to 24 hrs using TMRE staining by confocal microscopy. In kind it is functional, cell-based.
The subject of test [17] is HeLa. Nature of the test: Induction of mitochondrial dysfunction in human HeLa cells stably expressing GFP-LC3 assessed as loss of mitochondrial membrane potential at 10 uM after 6 to 24 hrs using TMRE staining by flow cytometry. It counts as functional, cell-based. (In general: In flow cytometry, cells or beads pass a laser one at a time.)
Test [18] concerns HeLa. Briefly: Induction of cytosolic ROS production in human HeLa cells at 5 to 10 uM after 24 hrs using DCF by flow cytometry. It counts as functional, cell-based.
Test [19] deals with HeLa. Nature of the test: Induction of mitochondrial ROS production in human HeLa cells at 5 to 10 uM after 24 hrs using Mito-SOX by flow cytometry. In kind it is functional, cell-based.
The subject of test [20] is HeLa. Nature of the test: Induction of ROS production in human HeLa cells stably expressing GFP-LC3 assessed as increasing number of punctuate GFP-LC3 dots at 5 to 10 uM after 6 hrs by confocal microscopy in presence of ROS scavenger NAC. It counts as functional, cell-based.
The test system of test [21] is HeLa. Nature of the test: Induction of ROS production in human HeLa cells stably expressing GFP-LC3 assessed as increase of the LC3-II level at 5 to 10 uM after 6 hrs by Western blot analysis in presence of ROS scavenger NAC. In kind it is functional, cell-based.
Test [22] deals with T1, c-Jun N-terminal kinase, JNK (Homo sapiens) (UniProt P45983+P53779+P45984). Briefly: Induction of JNK phosphorylation in human HeLa cells stably expressing GFP-LC3 assessed as punctuate GFP-LC3 formation at 5 uM after 6 hrs by confocal microscopy. It counts as cell-based.
The target in test [23] is T1, c-Jun N-terminal kinase, JNK (Homo sapiens). Nature of the test: Induction of JNK phosphorylation in human HeLa cells stably expressing GFP-LC3 assessed as increase of the LC3-II level at 5 uM after 6 hrs by Western blot analysis. It counts as cell-based.
Test [24] concerns PC-12. Nature of the test: Induction of autophagic degradation of alpha-synuclein in rat PC12 cells cotransfected with GFP-LC3 assessed as co-localiztion of alpha-synuclein with GFP-LC3 puncta by confocal microscopy. In kind it is functional, cell-based.
Test [25] deals with PC-12. Nature of the test: Induction of autophagic degradation of alpha-synuclein in rat PC12 cells cotransfected with GFP-LC3 and alpha-synuclein-myc assessed as reduction in protein level at 10 uM after 12 hrs by Western blot analysis. It counts as functional, cell-based.
Test [26] concerns PC-12. Nature of the test: Induction of autophagic degradation of alpha-synuclein in rat PC12 cells cotransfected with GFP-LC3 and alpha-synuclein-myc at 10 uM after 12 hrs by Western blot analysis in presence of bafilomycin A1. In kind it is functional, cell-based.
Test [27] relates to PC-12. Briefly: Induction of autophagic degradation of alpha-synuclein in […] KO rat PC12 cells cotransfected with GFP-LC3 and alpha-synuclein-myc at 10 uM after 12 hrs by Western blot analysis. It counts as functional, cell-based.
The target of test [28] is T1, c-Jun N-terminal kinase, JNK (Homo sapiens). Briefly: Induction of JNK phosphorylation in human HeLa cells stably expressing GFP-LC3 assessed as punctuate GFP-LC3 formation at 5 uM after 6 hrs by confocal microscopy in presence of SP600125. In kind it is cell-based.
The target is the same in test [29]. Nature of the test: Induction of JNK phosphorylation in human HeLa cells stably expressing GFP-LC3 assessed as increase of the LC3-II level at 5 uM after 6 hrs by Western blot analysis in presence of SP600125. It counts as cell-based.
The test system of test [30] is HeLa. Briefly: Induction of autophagy in human HeLa cells stably expressing GFP-LC3 assessed as increasing number of punctuate GFP-LC3 dots by high-throughput screening. In kind it is functional, cell-based.
Test [31] relates to HeLa. Briefly: Induction of LC3 autophagy in human HeLa cells stably expressing GFP-LC3 assessed as increasing number of punctuate GFP-LC3 dots at 10 uM after 6 hrs by confocal microscopy. It counts as functional, cell-based.

As to `CC(C)=C[C@H]1C[C@H](C)[C@]2(CC[C@]3(C)C[C@@H]4C(C)=CC(=O)[C@]4(O)/C(C=O)=C\C[C@H]32)O1`, the result in the test on HeLa [1], with U2OS, with SH-SY5Y, with HeLa [6], in the test on HeLa [7] and in the test with HeLa [11] was Active. Also, the result (in the test on HeLa [12]; in the test on HeLa [16]; in the test with HeLa [17]; with HeLa [18]; in the test with HeLa [19]; in test [22]) was Active. The result (in test [23]; with PC-12 [24]; in the test on PC-12 [25]; in the test on HeLa [30]; in the test on HeLa [31]) was Active. Further, the Activity entry with HeLa [2] is “Dose-dependent effect”; in the test on HeLa [3], “tde”; in the test on HeLa [4] it was “Dose-dependent effect”; in the test on HeLa [5], “tde”. The outcome in the test on HeLa [8], with HeLa [9], in the test with HeLa [10], in the test with HeLa [13], with HeLa [14] and with HeLa [15] was inactive. Moreover, the result (in the test on HeLa [20]; in the test on HeLa [21]; in the test with PC-12 [26]; in the test with PC-12 [27]; in test [28]; in [29]) was inactive.
In the case of `CC(C)=C[C@H]1C[C@H](C)[C@]2(CC[C@]3(C)C[C@@H]4C(C)=CC(=O)[C@@H]4/C(C=O)=C\C[C@H]32)O1`, the outcome in the test on HeLa [31] was inactive.
